Test results taken from patent US20090281111A1 (Fabre-Kramer Pharmaceuticals, Inc., priority 2008, published 2009).

Legend:
[1] = 3-OH gepirone concentrations in plasma after administration of gepirone; type: in vivo; details: human subjects administered a dose of gepirone, FIG. 2
Method: “Time (H)” represents time after administration.
Each sample corresponds to a 0.5 ml plasma sample, extracted with 6 ml of (2:1) (v/v) hexane:chloroform for 1 hour. After separation by centrifuge, the organic layer is transferred to a 10 ml conical tube and 90 ul of 1% formic acid is added. The tube is vortexed for 10 minutes and centrifuged for 5 minutes. About 80 ul of the formic acid layer is transferred into injection vials for HPLC/MS analysis.

[2] = molecular target: T1, 5-HT1A receptor (Homo sapiens, UniProt P08908); details: cited from earlier work
T1 sequence (P08908 1-422): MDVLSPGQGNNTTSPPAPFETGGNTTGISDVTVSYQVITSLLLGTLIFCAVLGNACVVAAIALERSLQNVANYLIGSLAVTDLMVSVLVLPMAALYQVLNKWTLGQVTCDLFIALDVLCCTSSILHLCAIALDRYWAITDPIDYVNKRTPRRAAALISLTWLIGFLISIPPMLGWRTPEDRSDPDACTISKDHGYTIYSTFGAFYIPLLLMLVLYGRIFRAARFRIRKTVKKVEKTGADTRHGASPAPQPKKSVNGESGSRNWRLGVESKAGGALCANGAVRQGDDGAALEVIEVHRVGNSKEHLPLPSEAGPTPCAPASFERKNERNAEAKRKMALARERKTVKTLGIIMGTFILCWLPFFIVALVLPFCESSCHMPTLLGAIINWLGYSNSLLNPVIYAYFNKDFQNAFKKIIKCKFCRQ

[3] = system: dopaminergic receptors; details: cited from earlier work
[4] = system: alpha-adrenergic receptors; details: Alpha 2A, Alpha 2B, Alpha 2C tested; cited from earlier work
[5] = molecular target: T2, Alpha 2C receptor (Homo sapiens, UniProt P18825); details: cited from earlier work
T2 sequence (P18825 1-462): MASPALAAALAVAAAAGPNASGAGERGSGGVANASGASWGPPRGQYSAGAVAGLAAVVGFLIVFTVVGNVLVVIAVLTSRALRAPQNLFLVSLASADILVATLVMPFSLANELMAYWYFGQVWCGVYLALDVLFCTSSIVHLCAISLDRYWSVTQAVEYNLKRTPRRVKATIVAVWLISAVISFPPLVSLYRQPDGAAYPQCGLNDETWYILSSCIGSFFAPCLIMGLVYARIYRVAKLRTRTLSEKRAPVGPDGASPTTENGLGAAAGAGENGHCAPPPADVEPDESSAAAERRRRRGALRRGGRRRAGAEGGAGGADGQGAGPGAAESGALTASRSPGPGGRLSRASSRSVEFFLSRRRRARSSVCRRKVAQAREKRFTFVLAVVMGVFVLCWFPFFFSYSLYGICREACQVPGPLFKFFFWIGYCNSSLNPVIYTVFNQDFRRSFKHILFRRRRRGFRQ

[6] = cited from earlier work; for half-life: in vivo
[7] = molecular target: 5-HT7 receptor (Homo sapiens, UniProt P34969); details: compared with 3-OH gepirone; cited from earlier work
[8] = molecular target: 5-HT2A receptor (Homo sapiens, UniProt P28223); details: compared with 3-OH gepirone; cited from earlier work
5-HT2A receptor, sequence (P28223 whole entry): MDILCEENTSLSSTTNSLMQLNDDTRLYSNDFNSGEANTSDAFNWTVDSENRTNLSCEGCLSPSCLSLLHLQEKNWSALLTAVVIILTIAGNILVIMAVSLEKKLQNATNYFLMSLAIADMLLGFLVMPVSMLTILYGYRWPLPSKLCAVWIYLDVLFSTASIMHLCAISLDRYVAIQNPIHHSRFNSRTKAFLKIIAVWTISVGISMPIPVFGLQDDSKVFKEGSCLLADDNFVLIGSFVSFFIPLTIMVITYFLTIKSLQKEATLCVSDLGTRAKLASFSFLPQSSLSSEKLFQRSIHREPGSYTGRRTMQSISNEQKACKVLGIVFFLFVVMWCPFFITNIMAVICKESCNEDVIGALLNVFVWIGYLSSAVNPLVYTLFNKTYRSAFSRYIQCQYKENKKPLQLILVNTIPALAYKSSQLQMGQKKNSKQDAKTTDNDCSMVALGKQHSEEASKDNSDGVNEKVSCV

5-HT7 receptor, sequence (P34969 whole entry): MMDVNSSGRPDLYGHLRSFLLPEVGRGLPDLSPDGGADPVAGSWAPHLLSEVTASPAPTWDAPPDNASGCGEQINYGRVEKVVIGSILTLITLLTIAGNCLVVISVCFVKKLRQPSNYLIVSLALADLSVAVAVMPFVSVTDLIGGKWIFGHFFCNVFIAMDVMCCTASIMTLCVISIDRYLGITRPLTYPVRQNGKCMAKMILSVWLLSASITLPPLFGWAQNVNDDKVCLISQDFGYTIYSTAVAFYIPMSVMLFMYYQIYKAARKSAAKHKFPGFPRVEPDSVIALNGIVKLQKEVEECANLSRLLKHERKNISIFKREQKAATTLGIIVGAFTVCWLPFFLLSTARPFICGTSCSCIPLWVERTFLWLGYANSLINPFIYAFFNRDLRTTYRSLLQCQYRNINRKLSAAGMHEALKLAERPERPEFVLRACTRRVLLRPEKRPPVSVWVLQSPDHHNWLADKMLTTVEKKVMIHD

CC1(C)CC(=O)N(CCCCN2CCN(c3ncccn3)CC2)C(=O)C1O (centres unmarked) [3-OH gepirone, 4,4,-dimethyl-3-hydroxy-1-[4-[4-(2-pyrimidinyl)-1-piperazinyl]butyl]-2,6-piperidinedione]
plasma levels of 3-OH gepirone over time [1]: available quickly and persists in the plasma for extended periods of time | selectivity among the serotonergic receptor subtypes [2]: highly selective for the 5-HT1A receptor | dopaminergic binding [3]: insignificant dopaminergic binding | affinity at alpha-adrenergic receptors [4]: did not display significant affinity | binding at the Alpha 2C receptor [5]: weak binding

O=C1CC2(CCCC2)CC(=O)N1CCCCN1CCN(c2ncccn2)CC1 [buspirone]
half-life [6]: very short | interaction with the 5-HT7 receptor [7]: much more specifically and at lower concentrations than does 3-OH gepirone

CC1(C)CC(=O)N(CCCCN2CCN(c3ncccn3)CC2)C(=O)C1 [gepirone, 4-dimethyl-1-[4-[4-(2-pyrimidinyl)-1-piperazinyl]butyl]-2,6-piperidinedione]
bioavailability ([6]; delivered orally): 14-18% | half-life [6]: very short | interaction with the 5-HT7 receptor [7]: much more specifically and at lower concentrations than does 3-OH gepirone | interaction with the 5-HT2A receptor [8]: much more specifically and at lower concentrations than does 3-OH gepirone
